Experiments:
MDA-MB-231 = assay: cells; details: Homo sapiens, MDA-MB-231, 48 h
Description: Antiproliferative activity against human MDA-MB-231 cells assessed as inhibition of cell growth incubated for 48 hrs by MTT assay

T47D = assay: cells; details: Homo sapiens, 48 h
Description: Antiproliferative activity against human T47D cells assessed as inhibition of cell growth incubated for 48 hrs by MTT assay

MCF7 = assay: cells; details: Homo sapiens, MCF7, 48 h
Description: Antiproliferative activity against human MCF7 cells assessed as inhibition of cell growth incubated for 48 hrs by MTT assay

[1] = Cytotoxicity against human HEK293 cells incubated for 48 hrs by MTT assay; assay type: toxicity, cell-based

SMILES	IC50 (MDA-MB-231) [µM]	IC50 (T47D) [µM]	IC50 (MCF7) [µM]	IC50 at 48 h [1] [µM]
Cc1ccc(Cn2cc(-c3nnn[nH]3)c3ccccc32)cc1	13.8	14.1	9.99	–
Cc1ccc(Cn2cc(-c3nnn(Cc4ccccc4)n3)c3ccccc32)cc1	8.2	15.8	11.9	–
Cc1ccc(Cn2nnc(-c3cn(Cc4ccccc4)c4ccccc34)n2)cc1	13.4	10.1	11.3	–
c1ccc(Cn2cc(-c3nnn[nH]3)c3ccccc32)cc1	16.6	24.4	> 25	–
COc1cccc(Cn2nnc(-c3cn(Cc4ccc(C)cc4)c4ccccc34)n2)c1	12.1	> 25	15.1	–
COc1cccc(Cn2nnc(-c3cn(Cc4ccccc4)c4ccccc34)n2)c1	15.9	16.5	3.08	–
Clc1ccc(Cn2nnc(-c3cn(Cc4ccccc4)c4ccccc34)n2)cc1	15.7	3.83	7.83	109
Cc1ccc(Cn2cc(-c3nnnn3Cc3ccc(Cl)cc3Cl)c3ccccc32)cc1	11.2	8.15	8.32	–
Cc1ccc(Cn2cc(-c3nnnn3Cc3ccccc3)c3ccccc32)cc1	9.62	14.5	9.93	–
Cc1ccc(Cn2nnnc2-c2cn(Cc3ccc(C)cc3)c3ccccc23)cc1	9.72	23.7	20.6	–
Cc1ccc(Cn2cc(-c3nnnn3Cc3cccc(Cl)c3)c3ccccc32)cc1	8.52	20	14.8	–
Cc1ccc(Cn2cc(-c3nnnn3Cc3ccc(Cl)c(Cl)c3)c3ccccc32)cc1	12.4	9.01	10.2	–
Clc1cccc(Cn2nnc(-c3cn(Cc4ccccc4)c4ccccc34)n2)c1	18.8	11.7	14.2	–
Clc1ccc(Cn2nnc(-c3cn(Cc4ccccc4)c4ccccc34)n2)c(Cl)c1	7.69	10.9	12.7	–
Cc1ccc(Cn2nnc(-c3cn(Cc4ccc(C)cc4)c4ccccc34)n2)cc1	15.8	> 25	> 25	–
Cc1ccc(Cn2cc(-c3nnn(Cc4ccc(Cl)cc4)n3)c3ccccc32)cc1	11.6	18.8	16.4	–
Cc1ccc(Cn2cc(-c3nnn(Cc4cccc(Cl)c4)n3)c3ccccc32)cc1	12.8	14.2	13.2	–
Cc1ccc(Cn2cc(-c3nnn(Cc4ccc(F)cc4)n3)c3ccccc32)cc1	13.1	15.8	13.3	–
Clc1ccc(Cn2nnc(-c3cn(Cc4ccccc4)c4ccccc34)n2)cc1Cl	19.4	10	7.95	> 125
Cc1ccc(Cn2cc(-c3nnn(Cc4ccc(Cl)c(Cl)c4)n3)c3ccccc32)cc1	14.9	23.9	8.73	–
Fc1ccc(Cn2nnc(-c3cn(Cc4ccccc4)c4ccccc34)n2)cc1	12.9	17.8	22.7	–
c1ccc(Cn2nnc(-c3cn(Cc4ccccc4)c4ccccc34)n2)cc1	14.7	13.5	9.24	–
Cc1ccc(Cn2cc(-c3nnn(Cc4ccc(Cl)cc4Cl)n3)c3ccccc32)cc1	16.7	10.6	16.6	–
Cc1c(-c2ccc(O)cc2)n(Cc2ccc(OCCN3CCCCCC3)cc2)c2ccc(O)cc12 [BAZEDOXIFENE]	6.73	14.2	7.31	38.5

— ChEMBL document CHEMBL5385969, “Design, synthesis, in vitro and in silico evaluation of indole-based tetrazole derivatives as putative anti-breast cancer agents” (RSC Med Chem, 2024)
